From the NIST ThermoML archive (doi:10.1016/j.tca.2015.01.022)
“And” between values parts separate entries of the source, which are not always exact repeats. Equal values may be shown once.

Experiment: molar heat capacity at constant pressure
Conditions: 101.33 kPa, Small (less than 1 g) adiabatic calorimetry

CCOS(=O)(=O)[O-].CCn1cc[n+](C)c1 [1-ethyl-3-methylimidazolium ethyl sulfate]
Conditions	molar heat capacity at constant pressure
180.75 K, Glass	245 J/K/mol
181.34 K, Glass	247.6 J/K/mol
182.03 K, Glass	250.7 J/K/mol
182.57 K, Glass	253.8 J/K/mol
183.25 K, Glass	259.2 J/K/mol
183.91 K, Glass	266.1 J/K/mol
184.33 K, Glass	269.6 J/K/mol
185.05 K, Liquid	286.4 J/K/mol
185.68 K, Liquid	306.2 J/K/mol
185.91 K, Liquid	312.8 J/K/mol
186.66 K, Liquid	340.5 J/K/mol
187.36 K, Liquid	351.6 J/K/mol and 351.8 J/K/mol
188.23 K, Liquid	351.6 J/K/mol
188.86 K, Liquid	353 J/K/mol
189.2 K, Liquid	353 J/K/mol
189.84 K, Liquid	354 J/K/mol
190 K, Liquid	354.1 J/K/mol
190.38 K, Liquid	354.4 J/K/mol
191.46 K, Liquid	354.4 J/K/mol
192.04 K, Liquid	354.7 J/K/mol
193.08 K, Liquid	354.7 J/K/mol
193.85 K, Liquid	354.7 J/K/mol
194.7 K, Liquid	354.7 J/K/mol
195.65 K, Liquid	354.9 J/K/mol
196.33 K, Liquid	354.9 J/K/mol
197.47 K, Liquid	355.1 J/K/mol
197.95 K, Liquid	355.1 J/K/mol
199.29 K, Liquid	355.4 J/K/mol
199.58 K, Liquid	355.4 J/K/mol
200 K, Liquid	355.5 J/K/mol
201.11 K, Liquid	355.6 J/K/mol
201.27 K, Liquid	355.6 J/K/mol
201.65 K, Liquid	355.9 J/K/mol
202.93 K, Liquid	356.1 J/K/mol
203 K, Liquid	355.9 J/K/mol
203.57 K, Liquid	356.1 J/K/mol
204.74 K, Liquid	356.1 J/K/mol
204.76 K, Liquid	356.6 J/K/mol
205.5 K, Liquid	356.3 J/K/mol
206.48 K, Liquid	356.6 J/K/mol
206.59 K, Liquid	356.8 J/K/mol
207.44 K, Liquid	356.8 J/K/mol
208.23 K, Liquid	356.8 J/K/mol
208.43 K, Liquid	357 J/K/mol
209.37 K, Liquid	357.3 J/K/mol
209.97 K, Liquid	357 J/K/mol
210 K, Liquid	357.2 J/K/mol
210.26 K, Liquid	357.3 J/K/mol
211.31 K, Liquid	357.5 J/K/mol
211.72 K, Liquid	357.5 J/K/mol
212.11 K, Liquid	357.7 J/K/mol
213.25 K, Liquid	358 J/K/mol
213.47 K, Liquid	357.7 J/K/mol
213.95 K, Liquid	358 J/K/mol
215.19 K, Liquid	358.2 J/K/mol
215.23 K, Liquid	358 J/K/mol
215.8 K, Liquid	358.5 J/K/mol
217.12 K, Liquid	358.7 J/K/mol
217.65 K, Liquid	358.7 J/K/mol
219.06 K, Liquid	359.2 J/K/mol
219.5 K, Liquid	359.2 J/K/mol
220 K, Liquid	359.2 J/K/mol
221 K, Liquid	359.4 J/K/mol
221.36 K, Liquid	359.6 J/K/mol
222.94 K, Liquid	359.9 J/K/mol
223.21 K, Liquid	359.9 J/K/mol
224.88 K, Liquid	360.3 J/K/mol
225.07 K, Liquid	360.3 J/K/mol
226.82 K, Liquid	361.1 J/K/mol
226.93 K, Liquid	360.8 J/K/mol
228.76 K, Liquid	361.3 J/K/mol
228.8 K, Liquid	361.3 J/K/mol
230 K, Liquid	361.6 J/K/mol
230.66 K, Liquid	361.8 J/K/mol
230.7 K, Liquid	361.8 J/K/mol
232.53 K, Liquid	362.2 J/K/mol
232.64 K, Liquid	362.2 J/K/mol
234.39 K, Liquid	362.7 J/K/mol
234.58 K, Liquid	362.7 J/K/mol
236.26 K, Liquid	363.2 J/K/mol
236.53 K, Liquid	363.4 J/K/mol
238.13 K, Liquid	363.9 J/K/mol
238.47 K, Liquid	363.9 J/K/mol
240 K, Liquid	364.3 J/K/mol
240.01 K, Liquid	364.4 J/K/mol
240.41 K, Liquid	364.6 J/K/mol
241.88 K, Liquid	364.8 J/K/mol
242.36 K, Liquid	365.1 J/K/mol
243.76 K, Liquid	365.3 J/K/mol
244.3 K, Liquid	365.5 J/K/mol
245.64 K, Liquid	365.8 J/K/mol
246.24 K, Liquid	366.2 J/K/mol
247.52 K, Liquid	366.5 J/K/mol
248.19 K, Liquid	366.7 J/K/mol
249.39 K, Liquid	367 J/K/mol
250 K, Liquid	367.1 J/K/mol
250.13 K, Liquid	367.4 J/K/mol
251.27 K, Liquid	367.4 J/K/mol
252.07 K, Liquid	367.9 J/K/mol
253.16 K, Liquid	368.1 J/K/mol
254.02 K, Liquid	368.6 J/K/mol
255.04 K, Liquid	368.6 J/K/mol
255.96 K, Liquid	369.1 J/K/mol
256.92 K, Liquid	369.1 J/K/mol
257.91 K, Liquid	369.8 J/K/mol
258.8 K, Liquid	369.8 J/K/mol
259.85 K, Liquid	370.3 J/K/mol
260 K, Liquid	370.1 J/K/mol
260.69 K, Liquid	370.3 J/K/mol
261.8 K, Liquid	370.7 J/K/mol
263.74 K, Liquid	371.4 J/K/mol
265.69 K, Liquid	372.2 J/K/mol
267.63 K, Liquid	372.6 J/K/mol
269.58 K, Liquid	373.3 J/K/mol
270 K, Liquid	373.3 J/K/mol
271.52 K, Liquid	373.8 J/K/mol
273.46 K, Liquid	374.3 J/K/mol
275.41 K, Liquid	375 J/K/mol
277.35 K, Liquid	375.7 J/K/mol
279.3 K, Liquid	376.2 J/K/mol
280 K, Liquid	376.4 J/K/mol
281.24 K, Liquid	376.6 J/K/mol
283.19 K, Liquid	377.4 J/K/mol
285.13 K, Liquid	378.1 J/K/mol
287.08 K, Liquid	378.3 J/K/mol
289.02 K, Liquid	379.2 J/K/mol
290 K, Liquid	379.6 J/K/mol
290.96 K, Liquid	380 J/K/mol
292.91 K, Liquid	380.7 J/K/mol
294.85 K, Liquid	381.4 J/K/mol
296.79 K, Liquid	382.1 J/K/mol
298.15 K, Liquid	382.8 J/K/mol
298.74 K, Liquid	383 J/K/mol
300 K, Liquid	383.6 J/K/mol
300.68 K, Liquid	383.7 J/K/mol
302.62 K, Liquid	384.7 J/K/mol
304.57 K, Liquid	385.4 J/K/mol
306.51 K, Liquid	386.3 J/K/mol
308.45 K, Liquid	387.3 J/K/mol
310 K, Liquid	388 J/K/mol
310.39 K, Liquid	388 J/K/mol
312.34 K, Liquid	388.9 J/K/mol
314.28 K, Liquid	389.6 J/K/mol
316.22 K, Liquid	390.6 J/K/mol
318.17 K, Liquid	391.5 J/K/mol
320 K, Liquid	392.6 J/K/mol
320.11 K, Liquid	392.5 J/K/mol
322.05 K, Liquid	393.7 J/K/mol
324 K, Liquid	394.4 J/K/mol
325.94 K, Liquid	395.3 J/K/mol
327.89 K, Liquid	396.3 J/K/mol
329.83 K, Liquid	397.2 J/K/mol
330 K, Liquid	397.3 J/K/mol
331.77 K, Liquid	398.1 J/K/mol
333.72 K, Liquid	399.1 J/K/mol
335.66 K, Liquid	400.3 J/K/mol
337.61 K, Liquid	401.5 J/K/mol
339.55 K, Liquid	402.2 J/K/mol
340 K, Liquid	402.3 J/K/mol
341.5 K, Liquid	403.1 J/K/mol
343.44 K, Liquid	404.3 J/K/mol
345.39 K, Liquid	405 J/K/mol
347.33 K, Liquid	405.9 J/K/mol
349.28 K, Liquid	407.1 J/K/mol
350 K, Liquid	407.5 J/K/mol
351.22 K, Liquid	408.1 J/K/mol
353.17 K, Liquid	409.3 J/K/mol
355.11 K, Liquid	410.2 J/K/mol
357.06 K, Liquid	411.1 J/K/mol
359 K, Liquid	412.1 J/K/mol
360 K, Liquid	412.8 J/K/mol
360.94 K, Liquid	413.3 J/K/mol
362.88 K, Liquid	414.2 J/K/mol
364.83 K, Liquid	415.2 J/K/mol
366.77 K, Liquid	416.3 J/K/mol
370 K, Liquid	418.4 J/K/mol
